Results: patent US9155770B2
One block for each molecule: values may come before it.

Assays:
TNF-RE tkLuc = assay: Effect of antiestrogens on TNF-RE tkLuc (Example 2); type: cell-based, human; conditions: in contrast to E2
ERβ [1] = target: T1, ERβ (Homo sapiens, UniProt Q92731); conditions: Example 2
ERβ [2] = target: T1, ERβ; assay: TNF-RE tkLuc repression in U2OS cells with ERβ; type: cell-based; parameters: expressed in transfected cells
[3] = system: estrogen receptor-positive breast cancer; conditions: five years of therapy; cited from earlier work
[4] = system: primary invasive breast cancer; conditions: women at high risk for breast cancer; cited from earlier work
ERβ [5] = target: T1, ERβ; assay: ERE-tk-Luc luciferase assay in U2OS cells with ERβ; type: cell-based; parameters: expressed in transfected cells; host or cells: U2OS (human osteosarcoma); conditions: competition with the extract

T1 sequence (Q92731 whole entry): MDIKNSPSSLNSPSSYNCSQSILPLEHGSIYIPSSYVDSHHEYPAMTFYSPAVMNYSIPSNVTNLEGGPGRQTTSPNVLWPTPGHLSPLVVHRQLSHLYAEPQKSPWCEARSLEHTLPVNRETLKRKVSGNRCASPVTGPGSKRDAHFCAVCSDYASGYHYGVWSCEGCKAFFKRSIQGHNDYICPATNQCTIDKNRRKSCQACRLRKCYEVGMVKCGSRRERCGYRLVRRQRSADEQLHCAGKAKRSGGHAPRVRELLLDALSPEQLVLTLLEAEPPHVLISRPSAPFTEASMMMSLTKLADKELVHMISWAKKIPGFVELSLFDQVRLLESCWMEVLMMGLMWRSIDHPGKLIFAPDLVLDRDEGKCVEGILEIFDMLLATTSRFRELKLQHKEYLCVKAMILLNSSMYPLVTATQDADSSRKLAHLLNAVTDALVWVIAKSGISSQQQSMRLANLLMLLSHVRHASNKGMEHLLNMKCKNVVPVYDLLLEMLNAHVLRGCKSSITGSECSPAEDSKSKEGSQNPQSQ

SMILES: C[C@]12CC[C@@H]3c4ccc(O)cc4C[C@@H](CCCCCCCCC[S+]([O-])CCCC(F)(F)C(F)(F)F)[C@H]3[C@@H]1CC[C@@H]2O (stereo partly drawn) [ICI 182, 780]
- activation of TNF-RE tkLuc (TNF-RE tkLuc): 2 fold

- repression of TNF-α activation of TNF-RE tkLuc with ERβ (ERβ [1]): 60-80%
- repression of TNF-α activation of TNF-RE with ERβ (ERβ [2]): 100%
SMILES: C[C@]12CC[C@@H]3c4ccc(O)cc4CC[C@H]3[C@@H]1CC[C@@H]2O [E2, estradiol]

SMILES: CC/C(=C(\c1ccccc1)c1ccc(OCCN(C)C)cc1)c1ccccc1 [tamoxifen]
- activation of TNF-RE tkLuc (TNF-RE tkLuc): 2 fold
- reduction of mortality from breast cancer [3]: 22%
- reduction of risk of recurrences [3]: 42%
- reduction of risk of primary invasive breast cancer [4]: 49%

- effect of SERM antagonist on extract-stimulated ERE with ERβ (FIG. 6) (ERβ [5]): inhibited
SMILES: O=C(c1ccc(OCCN2CCCCC2)cc1)c1c(-c2ccc(O)cc2)sc2cc(O)ccc12 [raloxifene]
- activation of TNF-RE tkLuc (TNF-RE tkLuc): 2 fold
